According to patent publication US20050004136A1, “Novel amidoalkyl-piperidine and amidoalkyl-piperazine derivatives useful as neurokinin receptor modulators” (priority 2000, published 2005):

Assays:
[1] = tested on: serotonin neural pathways; experiment: DOI Headshake Model; format: in vivo; set-up: key: Active: A statistically significant decrease in the number of headshakes induced by the administration of DOI in the mice given the test compound relative to the mice given the control was an indication of modulation of the serotonin neural pathways and thus an indication of an active compound; conditions: DOI-induced headshakes, mice (NIH Swiss; starred compounds also CD-1); for Number of Headshakes, IP Admin: i.p., doses up to 100 mg/kg; for Number of Headshakes, Oral Admin.: doses up to 40 mg/kg
Method: Male CD-1 or NIH-Swiss mice were fasted overnight. The mice were given control vehicle or test compound by the oral or intraperitoneal (i.p.) routes of administration at doses up to 40 mg/kg orally and up to 100 mg/kg i.p. Administration time was denoted as t0. At each of several selected intervals after t0 (at about 45 min, 1 h, 2 h, 4 h, 6 h, 8 h, 24 h after administration), separate groups of mice were given 1-{2,5-dimethoxy-4-iodophenyl]-2-aminopropane (DOI), a known serotonin receptor type-2A agonist, by the intraperitoneal route of administration route. […] (Separate groups of mice were tested at each time interval.) Peak activity time, denoted as tp, was determined as the time of the greatest reduction in the number of DOI-induced headshakes for mice given the test compound compared to the number of headshakes for the mice given the control, measured at the same time interval.
A statistically significant decrease in the number of headshakes induced by the administration of DOI in the mice given the test compound relative to the mice given the control was an indication of modulation of the serotonin neural pathways and thus an indication of an active compound.
In vivo biological activity was measured for select compounds of the present invention as listed in Table 11, using the procedures outlined above. Starred (*) compounds were tested on both male CD-1 mice and NIH Swiss mice, all other compounds were tested using Swiss NIH mice.

rats [2] = experiment: Elevated Plus Maze (EPM) Test; format: in vivo; set-up: key: Active = statistically significant (Mann Whitney U test p < 0.05) increase in open arm time or open arm entries at 10 mg/kg po; conditions: Long-Evans Hooded rats, 10 mg/kg po, one hour after dosing
Method: (§1) Male Long-Evans Hooded rats weighing 180 to 200 grams were purchased from Charles River Inc (Portage MI). The rats were housed in groups of four at an ambient temperature of 21 to 23° C. in a room with an automated 12/12 hour light/dark cycle. The rats had access to water and a commercial rodent food ad libitum. At the time of the experiment the rats weighed 220 to 350 grams.
(§2) The assay was run with test compound or vehicle administered to the animals at time zero. Fifty minutes after administration, the animals were tested in the SMA (Spontaneous Locomotor Activity), which was completed in 10 minutes. Immediately following SMA testing, the rats were moved and tested in the EPM (elevated Plus Maze), which was also completed in ten minutes. Test compounds were suspended in an aqueous vehicle (MC) comprised of 0.5% Methylcellulose and administered p.o.
The elevated plus maze (EPM) is the most widely used animal test of anxiety. The fully quantitative computerized EPM has validity as an anxiety model from the theoretical basis and pharmacological responses. The EPM also has high ecological validity since it studies the spontaneous behavioral patterns in response to interactions with the environment.
The procedure is based on the natural aversion of rodents to explore open and high places, as well as their innate tendency for thigmotaxis. When rats are placed on the elevated-plus maze, they have a normal tendency to remain in the enclosed arms of the maze and avoid venturing into the open arms. Animals treated with typical or atypical anxiolytics show an increase in the percentage of time spent (% Time) and/or the percentage of entries made (% Entries) into the open arms.
The test apparatus used consisted of a black plastic maze with two open arms and two arms with 40 cm high walls (enclosed arms) of equal length (50 cm) extending from the center at right angles, such that arms of similar type were opposite each other. Each plus-maze was elevated approximately 60 cm above the floor. Infrared photo-beams that crossed the entrance of each arm and the center of the maze detected the exploratory activity of an animal in the maze. […]
Anxiolytic activity of a test compound was quantified using two parameters: a) the percent of total time spent by a rat in one of the two open arms of the apparatus (% open arm time) which was calculated as follows: [formula] • and b) the number of times a rat entered the open arms relative to the total entries into all arms and the center area (% open arm entries), calculated as follows: [formula]
Data were analyzed for statistical significance between drug and vehicle-treated groups via one tailed Mann-Whitney T-Test. […]

rats [3] = experiment: Spontaneous Locomotor Activity (SMA) Test; format: in vivo; set-up: key: Increase = statistically significant (Mann Whitney U test p < 0.05) increase in horizontal activity and vertical movements indicating lack of sedation or motor impairment at 10 mg/kg po; conditions: Long-Evans Hooded rats, 10 mg/kg po, 50 minutes after administration; decrease = sedation
Method: as §1, §2
The test apparatus consisted of a plastic cubicle (40.6 cm, length; 40.6 cm, width; 30.5 cm, height) that was placed in the center of a main frame. Photocell sensors (8 beams from front to back and 8 beams from side to side) were built into the sides of the frame for monitoring horizontal movement. The photocells were located at right angles to each other, projecting horizontal infrared beams of light 5 cm apart and 2 cm above the floor to measure horizontal activity, and 5 cm apart and 14 cm above the floor to measure vertical activity. Rats were divided into groups (N=8 to 12). Test compound or vehicle was administered orally by gavage in a dose volume equivalent to 5 mL/kg. At 50 minutes after administration each rat was placed into a separate plastic cubicle and spontaneous exploratory activity was recorded for 10 minutes. Horizontal and vertical movements of the rats were recorded by counting the number of times the beams of light were interrupted (horizontal and vertical counts). Collection of the data and preliminary data analysis was automated. A drug-induced decrease in spontaneous horizontal or vertical motor activity was regarded as an indication of sedation.
HA data were analyzed for statistical significance between drug and vehicle-treated groups that were administered either the vehicle or each dose of the test compound by a one-way analysis of variance. Then Dunnett's multiple comparison method was used to test for a reduction (p<0.05, 1-tailed) in the average number of HA counts or VM counts in drug-treated groups, compared to a concurrently run vehicle-treated group. If the probability was less than 5% (p<0.05) that a decrease in HA and/or VM in the drug-treated group compared to a concurrently run vehicle-treated group was due to chance, then the dose of the test compound was considered to have sedative activity. Mann-Whitney T-Test is used in cases where the distribution of the data is non-gaussian.

[4] = tested on: Senktide-induced headshake; experiment: Reversal of Senktide-induced head shake in mice; format: in vivo; set-up: key: Active = a statistically significant (Mann-Whitney t-test (one-tailed)) reduction in the headshakes produced by senktide (5 mg/kg), in animals dosed with test compound 10 mg/kg po; conditions: NIH-Swiss mice, test compound 10 mg/kg po, senktide 5 mg/kg sc 45 min later, 10 min count
Method: The in vivo assay measuring the reversal of Senktide-induced headshake in mice has been previously described in the literature by Sarau, H. M., et al in J. Pharmacol. Exp. Therapeutics (2000), 295 pp 373-381.
Briefly, overnight fasted NIH-Swiss mice weighing 18-21 gms were treated with test compound or vehicle by the oral (gavage) route, at various concentrations. Forty five (45) minutes after administration, the animals are injected subcutaneously (sc) with Senktide at a concentration of 5 mg/kg. Immediately after administration of the Senktide, the animals are randomized and laced into isolated observation chambers and the number of headshakes per recorded over a ten (10) minute period. A decrease in the number of Senktide induced headshakes for test compound treated animals as compared with vehicle treated animals (analysis completed using Mann-Whitney t-test (one tailed)) was taken as an indication of anxiolytic activity for the compound.
Representative compounds of the instant invention were tested for reversal of Senktide-induced headshakes in mice, with results as listed in Table 12.

cisplatin induced emesis = experiment: Anti-emetic test, cisplatin induced emesis; format: in vivo, shrew; conditions: shrews, 20 mg/kg, administered subcutaneously; statistically significant reduction
Method: The effectiveness of a test compound to inhibit emesis in the shrew were determined according to the procedure described in Darmani, N. A. Serotonin 5-HT3 receptor antagonists prevent cisplatin-induced emesis in Cryptosis parva: a new experimental model of emesis. J Neural. Transm. 1998, 105, 1143-1154.

With `O=C(CC1CCN(C(=O)c2ccc(/C=C\c3ccncc3)cc2)CC1)Nc1ccccc1` [Compound 73, N-phenyl-1-[4-[(Z)-2-(4-pyridinyl)ethenyl]benzoyl]-4-piperidineacetamide] the “Number of Headshakes, IP Admin” value [1] was “Active” and the “Number of Headshakes, Oral Admin.” value [1] was “Active”.

For `O=C(CN1CCN(C(=O)c2cccc(NCc3cc(C(F)(F)F)cc(C(F)(F)F)c3)c2)CC1)Nc1ccccc1` [Compound 501, 4-[3-[[[3,5-bis(trifluoromethyl)phenyl]methyl]amino]benzoyl]-N-phenyl-1-piperazineacetamide], the “Number of Headshakes, Oral Admin.” value [1] was “Inactive”.

`O=C(CC1CCN(C(=O)c2cccc(C#Cc3ccccn3)c2)CC1)Nc1ccc(O)cc1` [Compound 75, N-(4-hydroxyphenyl)-1-[3-(2-pyridinylethynyl)benzoyl]-4-piperidineacetamide] was tested, and the “Number of Headshakes, IP Admin” value [1] was “Active”, the “Number of Headshakes, Oral Admin.” value [1] was “Active” and the “Increase % Open Arm Entries” value (rats [2]) was “Active”. For the same compound, the “Increase % Open Arm Time” value (rats [2]) was “Active”, the “SMA Horizontal Activity” value (rats [3]) was “Increase” and the “SMA Vertical Movement” value (rats [3]) was “Increase”.

`O=C(CN1CCN(C(=O)c2cccc(C#Cc3ccccn3)c2)CC1)Nc1ccccc1` [Compound 106, N-phenyl-4-[3-(2-pyridinylethynyl)benzoyl]-1-piperazineacetamide] was tested, and the “Number of Headshakes, IP Admin” value [1] was “Active” and the “Number of Headshakes, Oral Admin.” value [1] was “Active”.

For `O=C(CC1CCN(C(=O)c2cccc(C#Cc3ccccn3)c2)CC1)Nc1ccccc1` [Compound 10, N-phenyl-1-[3-(2-pyridinylethynyl)benzoyl]4-piperdineacetamide], the “Number of Headshakes, IP Admin” value [1] was “Active”, the “Number of Headshakes, Oral Admin.” value [1] was “Active” and the “Senktide Headshake Assay” value [4] was “Active”. The “Increase % Open Arm Entries” value (rats [2]) was “Active”, the “Increase % Open Arm Time” value (rats [2]) was “Active” and the “SMA Horizontal Activity” value (rats [3]) was “Increase”. For the same compound, the “SMA Vertical Movement” value (rats [3]) was “Increase” and the “cisplatin induced emesis in vivo test (reduction in cisplatin induced retching behavior)” value (cisplatin induced emesis) was “active”.
